# Test results published in patent US20150133492A1, “N-desmethyldauricine, A Novel Autophagic Enhancer for Treatment of Cancers and Neurodegenerative Conditions Thereof” (Macau University of Science and Technology, priority 2013, published 2015).
# System: HeLa cells expressing GFP-LC3
# Assay: GFP-LC3 puncta in the presence of specific inhibitors
# Format: cell-based, human
# Settings: LP-4 10 μM, 4 hours, CC 10 μM, STO-609 25 μM, BM 10 μM
# Method: GFP-LC3 puncta formation was quantified as previously described^15. In brief, HeLa cells expressing GFP-LC3 were treated with N-desmethyldauricine (LP-4, 10 μM) in the presence of AMPK inhibitor, compound C (CC, 10 μM), CaMKK-β inhibitor, STO-609 (25 μM) or Calcium chelator, BAPTA/AM (BM, 10 μM) for 4 hours. The cells were then fixed in 4% paraformaldehyde for 20 minutes at room temperature and then rinsed with PBS. Slides were mounted with FluorSave™ mounting media (Calbiochem) and examined by fluorescence microscopy. To quantify for autophagy, the percentage of cells with punctate GFP-LC3 fluorescence was calculated by counting the number of the cells with punctate GFP-LC3 fluorescence in GFP-positive cells. A minimum of 150 cells from 3 randomly selected fields was scored.
row,Compound,N-desmethyldauricine-induced GFP-LC3 puncta formation in presence of inhibitor
1,c1cc(-c2cnn3cc(-c4ccc(OCCN5CCCCC5)cc4)cnc23)ccn1 [compound C],significant reduction
2,CC(=O)OCOC(=O)CN(CC(=O)OCOC(C)=O)c1ccccc1OCCOc1ccccc1N(CC(=O)OCOC(C)=O)CC(=O)OCOC(C)=O [BAPTA/AM],significant reduction
3,O=C(O)c1ccc2c3c1cccc3c(=O)n1c3ccccc3nc21 [STO-609],significant reduction
